According to paper PMC7377239, “Cardiovascular Effects of Polychlorinated Biphenyls and Their Major Metabolites” (Environmental Health Perspectives, 2020):
Read-outs that look alike come from different tables or passages of the source.

What was measured:
HUVECs = experiment: High-content imaging cytotoxicity in HUVECs, 24 h; assay type: cell-based, human; details: Homo sapiens, HUVEC, 24 h; for viability at 0.01 µM / activity at 0.01 µM / viability at 0.1 µM / activity at 0.1 µM / viability at 1 µM / activity at 1 µM / viability at 10 µM / activity at 10 µM / viability at 100 µM / activity at 100 µM: 0.00 µM = 100.00; for viability at 0.1 µM / activity at 0.1 µM: 0.10 µM
How it was run: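 HUVECs (passages 1–5) were plated at 750 cells/well without fibronectin, grown to a monolayer (3–5 d) and exposed to compounds for 24 h at 37°C, 5% CO2. Hoechst 33342, MitoTracker Orange and calcein AM staining was imaged at 10×; readouts were normalized to 0.5% DMSO vehicle and fit to a four-parameter logistic model.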

[1] = system: iCell endothelial cells (human iPSC-derived ECs); experiment: High-content imaging cytotoxicity in iCell endothelial cells, 24 h; assay type: cell-based; details: Homo sapiens, Endothelial cell, 24 hr; for viability at 0.1 µM / activity at 0.1 µM: 0.10 µM
How it was run: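 Human iPSC-derived endothelial cells (passages 1–5) were grown to a fibronectin-coated monolayer, then exposed 24 h at 37 °C with 0.5% DMSO vehicle. Staining was Hoechst 33342, MitoTracker Orange and calcein AM, read by high-content imaging. Point of departure came from 4-parameter logistic fits, with a 1-SD vehicle cutoff and 100 µM as the top concentration.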

[2] = HUVECs, 24 hr, read-out: huvec.cyto.24hr
[3] = HUVECs, 24 hr, read-out: huvec.mito.24hr
[4] = HUVECs, 24 hr, read-out: huvec.mitoint.24hr
[5] = HUVECs, 24 hr, read-out: huvec.nma.24hr
[6] = HUVECs, 24 hrs, read-out: huvec.tc.24hrs
[7] = iPSC-EC, 0.00 µM control = 100.00, read-out: endo.cyto.24hr
[8] = iPSC-EC, 0.00 µM control = 100.00, read-out: endo.mito.24hr
[9] = iPSC-EC, 0.00 µM control = 100.00, read-out: endo.mitoint.24hr
[10] = iPSC-EC, 0.00 µM control = 100.00, read-out: endo.nma.24hr
[11] = iPSC-EC, 0.00 µM control = 100.00, read-out: endo.tc.24hrs

Oc1cc(Cl)cc(-c2cccc(Cl)c2)c1 [5-OH PCB 11]
viability at 0.01 µM (HUVECs; [2]): 94.6%
activity at 0.01 µM (HUVECs; [3]): 93.1%
activity at 0.01 µM (HUVECs; [4]): 89.8%
activity at 0.01 µM (HUVECs; [5]): 98.5%
viability at 0.1 µM (HUVECs; [2]): 87.5%
activity at 0.1 µM (HUVECs; [3]): 86.8%
activity at 0.1 µM (HUVECs; [4]): 107%
activity at 0.1 µM (HUVECs; [5]): 111%
viability at 1 µM (HUVECs; [2]): 93.9%
activity at 1 µM (HUVECs; [3]): 93.3%
activity at 1 µM (HUVECs; [4]): 101%
activity at 1 µM (HUVECs; [5]): 99.7%
viability at 10 µM (HUVECs; [2]): 35.9%
activity at 10 µM (HUVECs; [3]): 29.1%
activity at 10 µM (HUVECs; [4]): 17.5%
activity at 10 µM (HUVECs; [5]): 69.5%
viability at 100 µM (HUVECs; [2]): 24.1%
activity at 100 µM (HUVECs; [3]): 13.2%
activity at 100 µM (HUVECs; [4]): 12%
activity at 100 µM (HUVECs; [5]): 77.5%
minimal effective concentration (HUVECs; HUVECs, 24 hr, top concentration 100.00 µM, read-out: huvec.cyto.24hr POD): 0.95 µM
minimal effective concentration (HUVECs; HUVECs, 24 hr, top concentration 100.00 µM, read-out: huvec.mito.24hr POD): 0.84 µM
minimal effective concentration (HUVECs; HUVECs, 24 hr, top concentration 100.00 µM, read-out: huvec.mitoint.24hr POD): 3.3 µM
minimal effective concentration (HUVECs; HUVECs, 24 hr, top concentration 100.00 µM, read-out: huvec.nma.24hr POD): 1.22 µM
viability at 0.01 µM (HUVECs; [6]): 94.6%
viability at 0.1 µM (HUVECs; [6]): 87.5%
viability at 1 µM (HUVECs; [6]): 93.9%
viability at 10 µM (HUVECs; [6]): 36%
viability at 100 µM (HUVECs; [6]): 26.8%
minimal effective concentration (HUVECs; HUVECs, 24 hrs, top concentration 100.00 µM, read-out: huvec.tc.24hrs POD): 0.95 µM
viability at 0.01 µM [1, 7]: 99.9%
activity at 0.01 µM [1, 8]: 100%
activity at 0.01 µM [1, 9]: 96.8%
activity at 0.01 µM [1, 10]: 101%
viability at 0.01 µM [1, 11]: 99.9%
viability at 0.1 µM [1, 7]: 100%
activity at 0.1 µM [1, 8]: 100%
activity at 0.1 µM [1, 9]: 93.5%
activity at 0.1 µM [1, 10]: 100%
viability at 0.1 µM [1, 11]: 100%
viability at 1 µM [1, 7]: 102%
activity at 1 µM [1, 8]: 103%
activity at 1 µM [1, 9]: 92.3%
activity at 1 µM [1, 10]: 99.2%
viability at 1 µM [1, 11]: 102%
viability at 10 µM [1, 7]: 102%
activity at 10 µM [1, 8]: 103%
activity at 10 µM [1, 9]: 107%
activity at 10 µM [1, 10]: 98.6%
viability at 10 µM [1, 11]: 102%
viability at 100 µM [1, 7]: 19.9%
activity at 100 µM [1, 8]: 30.3%
activity at 100 µM [1, 9]: 62.5%
activity at 100 µM [1, 10]: 79.6%
viability at 100 µM [1, 11]: 47.2%
minimal effective concentration ([1]; iPSC-EC, top concentration 100.00 µM, read-out: endo.cyto.24hr POD): 42.3 µM
minimal effective concentration ([1]; iPSC-EC, top concentration 100.00 µM, read-out: endo.mito.24hr POD): 42.3 µM
minimal effective concentration ([1]; iPSC-EC, top concentration 100.00 µM, read-out: endo.mitoint.24hr POD): 55 µM
minimal effective concentration ([1]; iPSC-EC, top concentration 100.00 µM, read-out: endo.nma.24hr POD): 14.2 µM
minimal effective concentration ([1]; iPSC-EC, top concentration 100.00 µM, read-out: endo.tc.24hrs POD): 43.2 µM

Oc1cc(Cl)cc(-c2cccc(Cl)c2)c1 [5-OH-PCB 11]
minimal effective concentration (HUVECs; cyto, 24 hr, read-out: POD huvec.cyto.24hr): 0.95 µM
minimal effective concentration (HUVECs; mito, 24 hr, read-out: POD huvec.mito.24hr): 0.84 µM
minimal effective concentration (HUVECs; mitoint, 24 hr, read-out: POD huvec.mitoint.24hr): 3.3 µM
minimal effective concentration (HUVECs; nma, 24 hr, read-out: POD huvec.nma.24hr): 1.22 µM
minimal effective concentration (HUVECs; tc, 24 hr, read-out: POD huvec.tc.24hr): 0.95 µM
minimal effective concentration ([1]; endothelial cells (endo), cyto, read-out: POD endo.cyto.24hr): 42.3 µM
minimal effective concentration ([1]; endothelial cells (endo), mito, read-out: POD endo.mito.24hr): 42.3 µM
minimal effective concentration ([1]; endothelial cells (endo), mitoint, read-out: POD endo.mitoint.24hr): 55 µM
minimal effective concentration ([1]; endothelial cells (endo), nma, read-out: POD endo.nma.24hr): 14.2 µM
minimal effective concentration ([1]; endothelial cells (endo), tc, read-out: POD endo.tc.24hr): 43.2 µM
